Measurements reported in EP0315197B1 (GÖDECKE AKTIENGESELLSCHAFT, priority 1987, dated 1989).
Structures can show the parent of a compound that is named as a salt. Where two headings read alike, the source gives them in different places.

Columns and labels:
[1] = Kölle 1983; cited from earlier work
Hypertonie [2] = settings: for Senkung der Herzfrequenz / Senkung des systolischen Blutdrucks im Sitzen: 3 weeks; for Abnahme des diastolischen Blutdrucks: after 3 weeks vs end of placebo phase, depending on time of measurement; for Response-Rate zum Zeitpunkt 8 Uhr: pre-dose; for globale Response-Rate (Anteil der Patienten mit Response zu allen drei Meßzeitpunkten): response = diastolic decrease of at least 10 mmHg or below 90 mmHg; for DBD sitzend / DBD stehend / HR sitzend / SBD sitzend / SBD stehend / HR stehend: mean (SD)
From the text: Die Patienten befanden sich stationär in Reha-Kliniken.
Nach Absetzen einer eventuellen antihypertensiven Vorbehandlung erhielten die Patienten zunächst 1 Woche Placebo.
Zur Beurteilung der Wirksamkeit wurde der diastolische Blutdruck im Sitzen zu 3 verschiedenen Tageszeiten (8, 11 und 17 Uhr) herangezogen. "Response" war definiert als eine Senkung des diastolischen Blutdrucks um mindestens 10 mmHg oder unter einen Wert von 90 mmHg.

Hypertonie [3] = settings: for Response-Rate / Senkung des mittleren systolischen Blutdrucks im Sitzen: 8 weeks; for Senkung des diastolischen Blutdrucks im Sitzen: after 8 weeks vs placebo phase, morning pre-dose, mean; for DBD sitzend / DBD stehend / HR sitzend / HR stehend / SBD sitzend / SBD stehend: mean (SD)
Method: In diese multizentrische randomisierte Doppelblind-Parallel-Studie wurden wiederum Hypertoniker der WHO-Klasse I-III eingeschlossen, deren diastolischer Blutdruck am Ende der Placebophase höher als 95 mmHg war. Einer 2-wöchigen Placebophase folgte eine Behandlungsphase von 8 Wochen. Das Therapieschema von 1 x tgl. 180 mg bzw. 2 x tgl. 90 mg glich dem der vorangegangenen Studie. Zur Beurteilung der Wirksamkeit wurde die Senkung des diastolischen Blutdrucks bei der Messung am Morgen herangezogen, die jeweils nach 8 Wochen Behandlung erzielt worden war. Die Blutdruckmessung erfolgte wiederum vor der Medikation, um Aufschluß über die 24-h-Wirkung bei der einmal täglichen Behandlung zu erhalten.

[4] = 5 p.m., 1 × 180 mg (n = 40), Basislinie (end of placebo phase)
[5] = 5 p.m., 1 × 180 mg (n = 40), Endpunkt (3 weeks)
[6] = 5 p.m., 2 × 90 mg (n = 42), Basislinie (end of placebo phase)
[7] = 5 p.m., 2 × 90 mg (n = 42), Endpunkt (3 weeks)
[8] = 8 a.m., 1 × 180 mg (n = 40), Basislinie (end of placebo phase)
[9] = 8 a.m., 1 × 180 mg (n = 40), Endpunkt (3 weeks)
[10] = 8 a.m., 2 × 90 mg (n = 42), Basislinie (end of placebo phase)
[11] = 8 a.m., 2 × 90 mg (n = 42), Endpunkt (3 weeks)
[12] = 11 a.m., 1 × 180 mg (n = 40), Basislinie (end of placebo phase)
[13] = 11 a.m., 1 × 180 mg (n = 40), Endpunkt (3 weeks)
[14] = 11 a.m., 2 × 90 mg (n = 42), Basislinie (end of placebo phase)
[15] = 11 a.m., 2 × 90 mg (n = 42), Endpunkt (3 weeks)
[16] = 1 × 180 mg (n = 30), Basislinie (end of placebo phase)
[17] = 1 × 180 mg (n = 30), Endpunkt (8 weeks)
[18] = 2 × 90 mg (n = 30), Basislinie (end of placebo phase)
[19] = 2 × 90 mg (n = 30), Endpunkt (8 weeks)

COc1ccc([C@@H]2Sc3ccccc3N(CCN(C)C)C(=O)[C@@H]2OC(C)=O)cc1 [Diltiazem, Diltiazemhydrochlorid]
Halbwertzeit für die Elimination, α-Phase [1]: 0,1 h | Halbwertzeit für die Elimination, β-Phase [1]: 2,1 h | Halbwertzeit für die Elimination, γ-Phase [1]: 9,8 h | Senkung der Herzfrequenz (Hypertonie [2]; 1 x 180 mg group): 4-8 Schläge pro Minute | Senkung des systolischen Blutdrucks im Sitzen (Hypertonie [2]; 1 x 180 mg group): 19-22 mmHg | Abnahme des diastolischen Blutdrucks (Hypertonie [2]; 1 x 180 mg group): 13-16 mmHg | Response-Rate zum Zeitpunkt 8 Uhr (Hypertonie [2]; 1 x 180 mg group): 87,5% | globale Response-Rate (Anteil der Patienten mit Response zu allen drei Meßzeitpunkten) (Hypertonie [2]; 1 x 180 mg group): 85% | Senkung der Herzfrequenz (Hypertonie [2]; 2 x 90 mg group): 4-8 Schläge pro Minute | Senkung des systolischen Blutdrucks im Sitzen (Hypertonie [2]; 2 x 90 mg group): 15-18 mmHg | Abnahme des diastolischen Blutdrucks (Hypertonie [2]; 2 x 90 mg group): 13-16 mmHg | Response-Rate zum Zeitpunkt 8 Uhr (Hypertonie [2]; 2 x 90 mg group): 81% | globale Response-Rate (Anteil der Patienten mit Response zu allen drei Meßzeitpunkten) (Hypertonie [2]; 2 x 90 mg group): 62% | DBD sitzend (Hypertonie [2]; [4]): 99.2 (3.9) mmHg | DBD stehend (Hypertonie [2]; [4]): 101.0 (4.8) mmHg | HR sitzend (Hypertonie [2]; [4]): 76.5 (9.2) 1/min | SBD sitzend (Hypertonie [2]; [4]): 158.9 (16.1) mmHg | SBD stehend (Hypertonie [2]; [4]): 158.4 (16.3) mmHg | DBD sitzend (Hypertonie [2]; [5]): 85.2 (8.8) mmHg | DBD stehend (Hypertonie [2]; [5]): 88.8 (8.9) mmHg | HR sitzend (Hypertonie [2]; [5]): 70.0 (7.2) 1/min | HR stehend (Hypertonie [2]; [5]): 78.6 (7.7) 1/min | SBD sitzend (Hypertonie [2]; [5]): 140.2 (14.2) mmHg | SBD stehend (Hypertonie [2]; [5]): 138.5 (14.8) mmHg | DBD sitzend (Hypertonie [2]; [6]): 99.9 (5.9) mmHg | DBD stehend (Hypertonie [2]; [6]): 102.5 (5.8) mmHg | HR sitzend (Hypertonie [2]; [6]): 77.0 (8.4) 1/min | SBD stehend (Hypertonie [2]; [6]): 156.7 (15.0) mmHg | DBD sitzend (Hypertonie [2]; [7]): 87.0 (10.7) mmHg | DBD stehend (Hypertonie [2]; [7]): 87.7 (9.2) mmHg | HR sitzend (Hypertonie [2]; [7]): 72.1 (8.1) 1/min | HR stehend (Hypertonie [2]; [7]): 79.6 (9.1) 1/min | SBD stehend (Hypertonie [2]; [7]): 138.6 (15.1) mmHg | DBD sitzend (Hypertonie [2]; [8]): 98.3 (3.9) mmHg | DBD stehend (Hypertonie [2]; [8]): 100.1 (7.1) mmHg | HR sitzend (Hypertonie [2]; [8]): 76.8 (9.4) 1/min | HR stehend (Hypertonie [2]; [8]): 87.2 (11.0) 1/min | SBD sitzend (Hypertonie [2]; [8]): 161.3 (16.2) mmHg | SBD stehend (Hypertonie [2]; [8]): 158.6 (16.4) mmHg | DBD sitzend (Hypertonie [2]; [9]): 85.3 (8.3) mmHg | DBD stehend (Hypertonie [2]; [9]): 87.3 (9.8) mmHg | HR sitzend (Hypertonie [2]; [9]): 73.7 (7.1) 1/min | HR stehend (Hypertonie [2]; [9]): 80.6 (7.4) 1/min | SBD stehend (Hypertonie [2]; [9]): 141.0 (14.8) mmHg | DBD sitzend (Hypertonie [2]; [10]): 99.8 (5.2) mmHg | DBD stehend (Hypertonie [2]; [10]): 102.0 (5.8) mmHg | HR sitzend (Hypertonie [2]; [10]): 76.4 (9.6) 1/min | SBD stehend (Hypertonie [2]; [10]): 155.5 (17.9) mmHg | DBD sitzend (Hypertonie [2]; [11]): 83.9 (10.7) mmHg | DBD stehend (Hypertonie [2]; [11]): 88.5 (9.7) mmHg | HR sitzend (Hypertonie [2]; [11]): 72.1 (8.2) 1/min | HR stehend (Hypertonie [2]; [11]): 79.0 (8.0) 1/min | SBD stehend (Hypertonie [2]; [11]): 137.4 (16.1) mmHg | DBD sitzend (Hypertonie [2]; [12]): 98.5 (3.9) mmHg | DBD stehend (Hypertonie [2]; [12]): 100.5 (5.8) mmHg | HR sitzend (Hypertonie [2]; [12]): 75.1 (9.2) 1/min | HR stehend (Hypertonie [2]; [12]): 84.4 (9.5) 1/min | SBD sitzend (Hypertonie [2]; [12]): 159.2 (18.2) mmHg | SBD stehend (Hypertonie [2]; [12]): 157.9 (19.6) mmHg | DBD sitzend (Hypertonie [2]; [13]): 83.3 (8.2) mmHg | DBD stehend (Hypertonie [2]; [13]): 87.1 (8.3) mmHg | HR sitzend (Hypertonie [2]; [13]): 71.1 (7.0) 1/min | HR stehend (Hypertonie [2]; [13]): 78.8 (6.9) 1/min | SBD sitzend (Hypertonie [2]; [13]): 137.6 (12.2) mmHg | SBD stehend (Hypertonie [2]; [13]): 137.1 (14.2) mmHg | DBD sitzend (Hypertonie [2]; [14]): 100.2 (5.4) mmHg | DBD stehend (Hypertonie [2]; [14]): 102.9 (5.6) mmHg | HR sitzend (Hypertonie [2]; [14]): 76.0 (9.1) 1/min | HR stehend (Hypertonie [2]; [14]): 83.6 (10.4) 1/min | SBD sitzend (Hypertonie [2]; [14]): 158.1 (16.5) mmHg | SBD stehend (Hypertonie [2]; [14]): 155.8 (17.7) mmHg | DBD sitzend (Hypertonie [2]; [15]): 85.4 (9.5) mmHg | DBD stehend (Hypertonie [2]; [15]): 87.3 (10.6) mmHg | HR sitzend (Hypertonie [2]; [15]): 71.3 (7.8) 1/min | HR stehend (Hypertonie [2]; [15]): 78.6 (8.6) 1/min | SBD sitzend (Hypertonie [2]; [15]): 140.1 (15.8) mmHg | SBD stehend (Hypertonie [2]; [15]): 135.7 (15.5) mmHg | Response-Rate (Hypertonie [3]; 1 x 180 mg group): 80% | Senkung des diastolischen Blutdrucks im Sitzen (Hypertonie [3]; 1 x 180 mg group): 13 mmHg | Senkung des mittleren systolischen Blutdrucks im Sitzen (Hypertonie [3]; 1 x 180 mg): 16 mmHg | DBD sitzend (Hypertonie [3]; [16]): 100.7 (3.0) mmHg | DBD stehend (Hypertonie [3]; [16]): 98.7 (3.2) mmHg | HR sitzend (Hypertonie [3]; [16]): 72.5 (4.9) 1/min | HR stehend (Hypertonie [3]; [16]): 74.9 (6.3) 1/min | SBD sitzend (Hypertonie [3]; [16]): 175.1 (16.6) mmHg | SBD stehend (Hypertonie [3]; [16]): 169.7 (19.8) mmHg | DBD sitzend (Hypertonie [3]; [17]): 87.8 (9.1) mmHg | DBD stehend (Hypertonie [3]; [17]): 84.8 (9.2) mmHg | HR sitzend (Hypertonie [3]; [17]): 68.7 (4.4) 1/min | HR stehend (Hypertonie [3]; [17]): 71.3 (5.2) 1/min | SBD sitzend (Hypertonie [3]; [17]): 159.0 (18.8) mmHg | SBD stehend (Hypertonie [3]; [17]): 150.5 (26.6) mmHg | Response-Rate (Hypertonie [3]; 2 x 90 mg group): 70% | Senkung des diastolischen Blutdrucks im Sitzen (Hypertonie [3]; 2 x 90 mg group): 12 mmHg | Senkung des mittleren systolischen Blutdrucks im Sitzen (Hypertonie [3]; 2 x 90 mg): 10 mmHg | DBD sitzend (Hypertonie [3]; [18]): 99.1 (3.2) mmHg | DBD stehend (Hypertonie [3]; [18]): 99.0 (3.1) mmHg | HR sitzend (Hypertonie [3]; [18]): 73.5 (6.5) 1/min | HR stehend (Hypertonie [3]; [18]): 75.9 (7.5) 1/min | SBD sitzend (Hypertonie [3]; [18]): 169.4 (19.7) mmHg | SBD stehend (Hypertonie [3]; [18]): 168.5 (22.1) mmHg | DBD sitzend (Hypertonie [3]; [19]): 88.4 (8.0) mmHg | DBD stehend (Hypertonie [3]; [19]): 86.9 (8.6) mmHg | HR sitzend (Hypertonie [3]; [19]): 69.8 (6.0) 1/min | HR stehend (Hypertonie [3]; [19]): 72.5 (7.0) 1/min | SBD sitzend (Hypertonie [3]; [19]): 159.2 (23.7) mmHg | SBD stehend (Hypertonie [3]; [19]): 156.7 (28.4) mmHg
